Data set [1] has as its system proteinase K (EC 3.4.21.64). Nature of the data set: proteinase K in 50 mM Tris/HCl buffer, containing 10 mM CaCl2 pH 7.5. Conditions: tritirachium album, 37 °C, up to 24 h.
For data set [2], the system named is α-chymotrypsin (EC 3.4.21.1). As to the kind of experiment: α-chymotrypsin in 10 mM phosphate buffer, pH 7.4. Conditions: bovine pancreas, 30 °C, up to 24 h.
Data set [3] concerns elastase (EC 3.4.21.36). As to the kind of experiment: elastase in 100 mM Tris/HCl buffer, pH 8.4. As to conditions: porcine pancreas, 37 °C, up to 24 h.
Data set [4] relates to pepsin (EC 3.4.23.1). As to the kind of experiment: pepsin in 10 mM acetate buffer, pH 4.0. As to conditions: porcine stomach mucosa, 30 °C, up to 24 h.
Data set [5] deals with T1, α-chymotrypsin (EC 3.4.21.1) (Bos taurus, UniProt P00766).
T1 construct: purchased Sigma Aldrich; host or cells: bovine pancreas
Nature of the data set: Protease digestion assay with α-chymotrypsin (FL-RP-HPLC). Conditions: α-chymotrypsin (bovine pancreas), 10 mM phosphate buffer pH 7.4 with DMSO, 30 °C, 24 h, FL-RP-HPLC peak integration (Abz, λex 320/λem 420 nm), average of three independent measurements. Format: in vitro ADME, bovine. As to the method:
The FA peptide was used as a reference. […] All experiments were performed in triplicate.
The used linear gradients are
chromatograms where an insufficient baseline separation was observed,
(proteinase K)]. The obtained data were analyzed with EZChrom Elite software
Method Time [min] Water + 0.1% (v/v) TFA [%] ACN + 0.1% (v/v) TFA [%]

Data set [6] has as its target elastase (EC 3.4.21.36) (Sus scrofa, UniProt P00772). As to conditions: elastase, 100 mM Tris/HCl buffer pH 8.4, 37 °C; for Proteolytic stability compared to control peptide FA after 24 h: FL-RP-HPLC. The protocol:
(§1) The course of proteolytic digestion was characterized by an analytical HPLC-assay with fluorescence detection. For quantification of substrate degradation, integration of the corresponding HPLC peak was conducted. Cleavage products were identified by ESI–ToF mass spectrometry (see Supporting Information File 1, Tables S4–S7).
(§2) All peptides employed in the degradation studies were used as the TFA salts obtained after lyophilization. Stock solutions of α-chymotrypsin (from bovine pancreas, EC 3.4.21.1, ≥40.0 units/mg of protein, Sigma Aldrich, St. Louis, MO, USA), and pepsin (from porcine stomach mucosa, EC 3.4.23.1, ≥250 units/mg of protein, Sigma Aldrich, St. Louis, MO, USA) were prepared at concentrations of 1 mg/mL in phosphate buffer (10 mM, pH 7.4), or in acetate buffer (10 mM, pH 4.0), respectively. For proteinase K (from tritirachium album, EC 3.4.21.64, ≥30 units/mg of protein, Sigma Aldrich, St. Louis, MO, USA) and elastase (from porcine pancreas, EC 3.4.21.36, 6.2 units/mg of protein, Sigma Aldrich, St. Louis, MO, USA) stock solutions were prepared also at concentrations of 1 mg/mL in tris/HCl (50 mM) + CaCl2 (10 mM) buffer (pH 7.5), or in tris/HCl buffer (100 mM, pH 8.4), respectively. Peptides (0.002 mmol) were prepared as stocks in DMSO (100 µL) and incubated with the respective enzyme at 30 °C (for α-chymotrypsin and pepsin) or 37 °C (for proteinase K and elastase) with shaking at 300 rpm in a thermomixer over a period of 24 h. The reaction mixture consisted of DMSO (15 µL), corresponding buffer (25 µL), peptide solution (5 µL) and the corresponding enzyme solution (5 µL). […] Aliquots of 5 µL were taken at fixed time points (0, 15, 30, 60, 90, 120 min as well as 3 h and 24 h) and either quenched with ACN containing 0.1% (v/v) TFA (95 µL), in the case of α-chymotrypsin, proteinase K and elastase, or 2% aqueous ammonia (95 µL), in the case of pepsin. All samples were subjected to analytical HPLC on a LaChrom-ELITE-HPLC-System equipped with a fluorescence detector (VWR International Hitachi, Darmstadt, Germany). A monolithic reversed-phase C8 Chromolith® Performance HPLC column (100 × 4.6 mm, Merck KGaA, Darmstadt, Germany) was used to resolve and quantify the products of digestion. The used system and gradients are described in detail in Supporting Information File 1. Detection based on the Abz label was carried out using a fluorescence detector with λex = 320 nm and λem = 420 nm. In all cases, the peaks corresponding to the starting materials (full-length peptides) or the N-terminal fragments (products) were integrated and used to determine the velocity of the reaction (see Supporting Information File 1). […] Each fragment cleaved from the full-length peptide was identified by ESI–ToF mass analysis on an Agilent 6220 ESI–ToF–MS spectrometer (Agilent Technologies, Santa Clara, CA, USA, see Supporting Information File 1). All experiments were performed in triplicate.
(§3) 2130) with solvent degasser, an autosampler (L-2200) with a 100 µL sample loop, a diode array flow detector (L-2455), a fluorescence detector (L-2485) and a high pressure gradient mixer. As eluents water and ACN, both containing 0.1% (v/v) TFA were used, and a flow rate of 3 mL/min was applied. The used linear gradients are […]
(§4) For the non-fluorinated peptides method A was used to follow the digestion process, and for the fluorinated peptides method B was applied. For […]
(§5) The obtained data were analyzed with EZChrom Elite software
(§6) (version 3.3.2, Agilent Technologies, Santa Clara, CA, USA).

Data set [7] has as its target pepsin (EC 3.4.23.1) (Sus scrofa, UniProt P00791). As to the kind of experiment: in vitro. Conditions: pepsin (porcine stomach mucosa), 10 mM acetate buffer pH 4.0 with DMSO, 30 °C, 24 h, FL-RP-HPLC peak integration (Abz, λex 320/λem 420 nm), average of three independent measurements. As to the method:
as §1, §2, §3, §4, §5, §6

The values below come from article PMC5753150 (Beilstein Journal of Organic Chemistry, 2017).

“Also recorded” adds a separate entry of the source. *1 amine or outer side, *2 acyl side, *3 side chain or, on linkers, in order; H or OH if unused. Where a SMILES comes first, the peptide text is derived from it. [ ]: non-standard residue; d: D form. X1 = C[C@@H](CC(F)(F)F)[C@H](N[*:1])C(=O)[*:2]; 2Abz = Nc1ccccc1C(=O)O

Sequence of elastase (EC 3.4.21.36) (Sus scrofa, UniProt P00772) (P00772 27-266): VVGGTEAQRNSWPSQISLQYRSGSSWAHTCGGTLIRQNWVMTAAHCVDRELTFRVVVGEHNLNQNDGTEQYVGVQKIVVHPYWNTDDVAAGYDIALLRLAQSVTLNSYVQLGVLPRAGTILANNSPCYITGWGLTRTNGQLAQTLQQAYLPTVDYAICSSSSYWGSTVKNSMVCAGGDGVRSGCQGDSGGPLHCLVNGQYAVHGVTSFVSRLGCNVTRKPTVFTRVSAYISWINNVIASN
Sequence of pepsin (EC 3.4.23.1) (Sus scrofa, UniProt P00791) (P00791 60-385): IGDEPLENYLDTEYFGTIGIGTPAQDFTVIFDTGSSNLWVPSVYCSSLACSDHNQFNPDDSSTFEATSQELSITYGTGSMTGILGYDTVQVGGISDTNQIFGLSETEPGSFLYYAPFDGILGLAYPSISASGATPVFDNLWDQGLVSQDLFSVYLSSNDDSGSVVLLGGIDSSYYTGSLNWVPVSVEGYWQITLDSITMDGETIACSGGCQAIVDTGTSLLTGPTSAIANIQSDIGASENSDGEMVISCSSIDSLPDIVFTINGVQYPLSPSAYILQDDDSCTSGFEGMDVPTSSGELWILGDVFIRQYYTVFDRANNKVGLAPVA

As for Abz-KAAFIleAAAK, the cleaved bond entry is “A-F and A-A” in data set [1]; “F-Ile, major” in data set [2]; “A-F and A-A” in data set [3]. Besides, the not cleaved result in data set [3] is listed as “no fragments with Phe in the P1 position observed”.

Regarding Abz-KALeuFAAAAK, the cleaved bond entry is “Leu-F and A-A” in data set [1]; “F-A, major” in data set [2]; “A-Leu and A-A and A-K” in data set [3]; “F-A” in data set [4].

Take Abz-KAAFAIleAAK: the cleaved bond result in data set [1] was “A-F and A-Ile”; in data set [2] it was “F-A, major”; in data set [3], “A-F and Ile-A and A-A and A-K”; in data set [4], “F-A”. Also, in data set [3], the not cleaved result was “no fragments with Phe in the P1 position observed”.

Take Abz-KAAFLeuAAAK: the cleaved bond entry was “A-F and A-A” in data set [1]; “F-Leu, major; also recorded: Leu-A” in data set [2]; “K-A and A-A and A-F and A-K” in data set [3]; “F-Leu; also recorded: Leu-Ala” in data set [4]. In addition, the not cleaved entry in data set [3] is recorded as “no fragments with Phe in the P1 position observed”.

Abz-KAAFAHfLeuAAK: the cleaved bond entry in data set [1] was “A-HfLeu; also recorded: HfLeu-A”; in data set [2] it was “F-A, major”; in data set [3] it was “K-A and A-A and A-F and A-HfLeu”; in data set [4] it was “A-HfLeu”. Besides, the not cleaved result in data set [3] was “no fragments with Phe in the P1 position observed”; in data set [4] it was “not hydrolyzed at the designed cleavage site”.

With Abz-KAAFHfLeuAAAK, the cleaved bond entry is “A-F” in data set [1]; “F-HfLeu, major; also recorded: HfLeu-A” in data set [2]; “K-A and A-A” in data set [3]; “F-HfLeu; also recorded: HfLeu-Ala” in data set [4]. Further, the not cleaved entry in data set [3] is reported as “no fragments with Phe in the P1 position observed”.

In the case of `CC(C)C[C@H](NC(=O)[C@H](C)NC(=O)[C@H](CCCCN)NC(=O)c1ccccc1N)C(=O)N[C@@H](Cc1ccccc1)C(=O)N[C@@H](C)C(=O)N[C@@H](C)C(=O)N[C@@H](C)C(=O)N[C@@H](C)C(=O)N[C@@H](CCCCN)C(=O)O` [P2-LeuFA] (H-[2Abz]KALFAAAAK-OH), in data set [5], the “Percentage of substrate remaining after incubation for 24 h” value is given as “complete proteolysis”.

With Abz-KAHfLeuFAAAAK, the cleaved bond entry was “HfLeu-F and A-A” in data set [1]; “HfLeu-F and A-A” in data set [3]; “F-A and HfLeu-F” in data set [4]. Also, the not cleaved result in data set [2] is given as “not digested at all”; in data set [3] it was “no fragments with Phe in the P1 position observed”.

In the case of Abz-KAIleFAAAAK, the cleaved bond result in data set [1] is “F-A”; in data set [2] it was “F-A, major”; in data set [3] it was “Ile-F and A-A and A-K”; in data set [4] it was “F-A”. For the same molecule, the not cleaved result in data set [3] is recorded as “no fragments with Phe in the P1 position observed”.

On to `C[C@H](NC(=O)[C@H](C)NC(=O)[C@@H](NC(=O)[C@H](Cc1ccccc1)NC(=O)[C@H](C)NC(=O)[C@H](C)NC(=O)[C@H](CCCCN)NC(=O)c1ccccc1N)[C@@H](C)CC(F)(F)F)C(=O)N[C@@H](C)C(=O)N[C@@H](CCCCN)C(=O)O` [P1’-TfIleFA] (H-[2Abz]KAAF[X1]AAAK-OH), for which the “Proteolytic stability compared to control peptide FA after 24 h” value in data set [6] is “comparably stable”. For the same molecule, in data set [6] (after 24 h), the “Gain in stability upon fluorination compared to the non-fluorinated (Leu or Ile) analogue, 24 h” value is “accelerates enzymatic degradation”.

For Abz-KAAFTfIleAAAK, the cleaved bond entry in data set [1] was “A-F and A-A”; in data set [2], “F-TfIle, major”; in data set [3], “A-A”; in data set [4], “F-TfIle”. The not cleaved result in data set [3] is on record as “no fragments with Phe in the P1 position observed”.

For Abz-KAAFAAAAK, the cleaved bond result is listed as “A-A” in data set [1]; “F-A, major” in data set [2]; “A-A” in data set [3]; “F-A” in data set [4]. Besides, the not cleaved result in data set [3] was “no fragments with Phe in the P1 position observed”.

Consider `CC[C@H](C)[C@H](NC(=O)[C@H](Cc1ccccc1)NC(=O)[C@H](C)NC(=O)[C@H](C)NC(=O)[C@H](CCCCN)NC(=O)c1ccccc1N)C(=O)N[C@@H](C)C(=O)N[C@@H](C)C(=O)N[C@@H](C)C(=O)N[C@@H](CCCCN)C(=O)O` [P1’-IleFA] (H-[2Abz]KAAFIAAAK-OH), for which the “Proteolytic stability compared to control peptide FA after 24 h” value in data set [6] is given as “more stable than the control peptide FA”.

As to `C[C@H](NC(=O)[C@H](C)NC(=O)[C@H](C)NC(=O)[C@H](Cc1ccccc1)NC(=O)[C@H](C)NC(=O)[C@H](C)NC(=O)[C@H](CCCCN)NC(=O)c1ccccc1N)C(=O)N[C@@H](C)C(=O)N[C@@H](CCCCN)C(=O)O` [FA] (H-[2Abz]KAAFAAAAK-OH), the “Percentage of substrate remaining after incubation for 24 h” value in data set [7] was “almost completely degraded”.

Regarding Abz-KAAFATfIleAAK, the cleaved bond result in data set [1] is “A-F”; in data set [2], “F-A, major”; in data set [3] it was “A-F and TfIle-A”; in data set [4] it was “F-A and A-TfIle and A-F”. The not cleaved result in data set [3] was “no fragments with Phe in the P1 position observed”.

Abz-KATfIleFAAAAK: the cleaved bond result in data set [1] is “F-A and A-A”; in data set [3] it was “TfIle-F and A-A”. For the same molecule, the not cleaved result in data set [2] was “not digested at all”; in data set [3], “no fragments with Phe in the P1 position observed”; in data set [4], 100% after 24 h.
